Source: patent US12685738B2, “Inotodiol as agonist of liver x receptors, and use thereof” (CARBOEXPERT INC., priority 2020, dated 2026)
“And” between values parts separate entries of the source, which are not always exact repeats. Equal values may be shown once. Read-outs that look alike come from different tables or passages of the source.

Columns and labels:
ABCA1 = assay: Real-time PCR of ABCA1 gene expression in brain tissue; format: in vivo, Balb/c mice; conditions: Ino (10 mpk) vs control (Naïve); groups prepared as in Example 3; FIG. 6A
Procedure: (§1) When inotodiol was administered to mice, the expression of ABCA1 and APOE in brain tissue, which are genes related to neurodegenerative brain diseases, was analyzed.
(§2) Specifically, as in Example 3, controls and inotodiol-administered mouse groups were prepared, and then, to extract total RNA, first, 50 mg of brain tissue samples were quantified, and then cells were crushed using a mortar. 1 mL of Trizol was dispensed into each crushed sample and mixed by vortexing. Then, 0.2 mL of chloroform was dispensed and a reaction was allowed to occur therein at room temperature for 3 minutes. The reaction product was centrifuged at 12,000 rpm and 4° C. for 15 minutes, and then only the transparent supernatant was transferred to a new tube. Thereafter, 0.5 mL of isopropyl alcohol was dispensed, and then a reaction was allowed to occur therein at room temperature for 10 minutes. The resultant was centrifuged 12,000 rpm and 4° C. for 10 minutes, and then the supernatant was completely removed, and impurities were removed using 1 mL of 75% ethanol. […] Each sample was dissolved using DEPC water, and then total RNA was quantified to 1000 ng/μL using Nanodrop, and cDNA synthesis was performed using primeScript RT Master Mix (Takara Korea). […]

APOE = assay: Real-time PCR of APOE gene expression in brain tissue; format: in vivo, Balb/c mice; conditions: Ino (10 mpk) vs control (Naïve); groups prepared as in Example 3; FIG. 6B
Procedure: as §1, §2

[1] = Inotodiol concentrations in blood and brain tissue (LC/MS); format: in vivo, Balb/c mice; conditions: 4.5 mg/kg orally for 10 days, sampled day 11; for concentration at 11 day: 4.5 mg/kg
Procedure: When inotodiol was administered to mice, the concentrations of inotodiol detected in blood and brain tissue of the mice were analyzed.
Specifically, 7-week-old Balb/c mice were supplied and acclimatized for 1 week, and then 4 mice per group were assigned to conduct experiments. Mice were grouped into: four controls not administered with inotodiol; and four groups administered with inotodiol. In the groups administered with inotodiol, 4.5 mg/kg of inotodiol was orally administered for 10 days. On day 11, the controls and inotodiol-administered mice were sacrificed, and blood and brain tissue samples were prepared.
First, to analyze the concentration of inotodiol in blood, 20 μL of serum was transferred to a 1.5 mL Eppendorf tube, and then inotodiol was extracted twice in ethanol. In each extraction step, 200 μL of ethanol was mixed with serum and the mixture was sonicated for 10 minutes, followed by centrifugation at 14000×g for 15 minutes.
To analyze the concentration of inotodiol in brain tissue, the whole brain was weighed and mixed with 10-fold (v/w) 100% ethanol, and then the mixture was sonicated and centrifuged.
After centrifugation, each residue was reconstituted with 0.5 mL of 60% methanol for solid phase extraction by using a C18 cartridge (Sep-Pak C18 3 cc Vac Cartridge, 200 mg adsorbent, Waters). Samples were loaded into cartridges and activated using methanol (6 mL), followed by conditioning with 60% methanol (6 mL). The cartridges were then washed with 6 mL of 60% methanol. Then, inotodiol was collected by eluting the cartridges with 100% methanol (3 mL) in glass tubes. After evaporation of each sample, the residue was dissolved in methanol and subjected to LC/MS analysis.

[2] = tested on: LXR-related markers (Abca1, Srebf1_1C, AQP1, ApoE1); assay: In vivo qPCR analysis of effect of inotodiol on LXR-related markers; set-up: species or system mice (BALB/cAnNTacSam)
Procedure: The effect of inotodiol on Abca1, Srebf1_1C, AQP1, and ApoE1, which are LXR-related markers, was analyzed.
First, an inotodiol emulsion for administration at a dose of 4 mg/kg was prepared. Specifically, an emulsion was prepared by mixing inotodiol with 10% of olive oil (Monini, Classico extra virgin olive oil), 0.5% of tween 80, and sterile water. Subsequently, each 0.15 mL of the prepared emulsion was administered to BALB/cAnNTacSam (Sam Taco Bio Korea Co., Ltd.) for 5 days. After 5 days of administration, mice were euthanized, and then spleen, lung, liver and peritoneal cell samples were isolated.
Next, to perform qPCR on the isolated samples, total RNA was extracted using a Bead™ Total RNA Prep Kit (BioFACT™) sample. Thereafter, primers for Abca1, Srebf1_1C, AQP1, and ApoE1 were used, the reaction reagent for qPCR was 2× Real-Time PCR Master Mix (BioFACT™), and the equipment used for qPCR was AriaMx Real-time PCR. The qPCR conditions were as follows: at 95° C. for 15 minutes, and 50 cycles at 95° C. for 20 seconds, 55° C. for 30 seconds, and 72° C. for 0.5-1 min/kb, and for the melting curve, 1 cycle was performed at 95° C. for 30 seconds, 65° C. for 30 seconds, and 95° C. for 30 seconds, and relative mRNA expression was measured.

[3] = Two-week mouse toxicity test: health signs and total fat content of liver; conditions: for changes in total fat content of the liver: male and female mice, 2 weeks
Procedure: If inotodiol is a LXR-α agonist, inotodiol overexpresses Srebf1 in the liver, thereby inducing fatty liver. Selectivity for LXRs and safety of inotodiol were evaluated through a two-week mouse toxicity test.
Specifically, the inotodiol emulsion was orally administered to male and female ICR mice in an amount of 0.0 mg/kg (group 1), 5.0 mg/kg (group 2), and 20 mg/kg (group 3) once a day for 2 weeks. […] As a control, 100% olive oil was administered.

rheumatoid arthritis = assay: Bovine type II collagen-induced arthritis, macroscopic arthritic score; format: in vivo, male DBA/1J mice; conditions: 4 mg/kg or 10 mg/kg orally once a day for 4 weeks; vs arthritic animals not administered; FIG. 7
TNF-α = TNF-α ELISA in arthritic animals; format: in vivo, mouse; conditions: arthritic animals administered with inotodiol; FIG. 8
Procedure: Next, the expression of TNF-α, which is a factor that activates inflammation, was confirmed. […] Then, the coating buffer was removed, followed by washing three times with 200 μL of washing buffer (0.05% Tween20/PBS). To prevent non-specific binding, a reaction with 200 μL of a blocking solution (1% BSA/PBS) was allowed to occur at room temperature for 1 hour. Washing was performed three times using a washing buffer. A standard material (Biolgend) and each sample were diluted using a blocking solution, and then 100 μL of each thereof was dispensed, and a reaction was allowed to occur therein at room temperature for 2-4 hours. Washing was performed three times using a washing buffer. A secondary antibody (biotin-labeled detection antibody, biolegend) was diluted to 0.25-2 μg/mL using a blocking solution, and then 100 μl thereof was dispensed and a reaction was allowed to occur therein at room temperature for 1 hour. Washing was performed three times using a washing buffer. Avidin-Horseradish peroxidase (Biolegend) was diluted 1/1000 times using a blocking solution, then 100 μL thereof was dispensed and a reaction was allowed to occur therein at room temperature for 30 minutes. Washing was performed 5 times using a washing buffer. […] An ELISA plate was examined at 450 nm using an EPOCH microplate reader (Biotek).

[4] = inotodiol emulsion 4 mg/kg for 5 days, various samples (FIGS. 1 to 5), vs untreated control
[5] = liver sample, 4 mg/kg for 5 days

## CC(C)=CC[C@@H](O)[C@@H](C)[C@H]1CC[C@@]2(C)C3=C(CC[C@]12C)[C@@]1(C)CC[C@H](O)C(C)(C)[C@@H]1CC3 [inotodiol, (3S,5R,10S,13R,14R,17R)-17-[(2S,3R)-3-hydroxy-6-methylhept-5-en-2-yl]-4,4,10,13,14-pentamethyl-2,3,5,6,7,11,12,15,16,17-decahydro-1H-cyclopenta[a]phenanthren-3-ol]
ABCA1
  ABCA1 gene expression in brain tissue: highly expressed
APOE
  APOE gene expression in brain tissue: highly expressed
[1]
  Inotodiol concentration (ng/g) Brain, individual mice: 177.1 ng/g and 133.3 ng/g and 135.0 ng/g
[1]; 4 mice
  Inotodiol concentration (ng/g) Brain, Average: 151.7 ± 21.3 ng/g
[1]; 4 mice, serum
  Inotodiol concentration (ng/g) Blood, Average: 12.1 ± 1.3 ng/g
[1]; serum
  Inotodiol concentration (ng/g) Blood, individual mice: 10.5 ng/g and 14.2 ng/g and 11.8 ng/g
[1]; Balb/c, mouse, brain / blood (serum), oral, read-out: inotodiol detected in the brain relative to blood
  Kp at 11 day: ~12
[1]; Balb/c, mouse, brain, oral, 4 mice, read-out: Inotodiol concentration (ng/g) Brain, Average
  concentration at 11 day: 152 ± 21.3 ng/g
[1]; Balb/c, mouse, brain, oral, read-out: Inotodiol concentration (ng/g) Brain, individual mice
  concentration at 11 day: 161 ng/g
[1]; Balb/c, mouse, serum, oral, 4 mice, serum, read-out: Inotodiol concentration (ng/g) Blood, Average
  concentration at 11 day: 12.1 ± 1.3 ng/g
[1]; Balb/c, mouse, serum, oral, serum, read-out: Inotodiol concentration (ng/g) Blood, individual mice
  concentration at 11 day: 12.2 ng/g
[2]; [4]
  expression of AQP1 (relative mRNA expression): increases
  expression of Abca1 (relative mRNA expression): increases
  expression of ApoE1 (relative mRNA expression): increases
  expression of Srebf1 (relative mRNA expression): increases
[2]; [5]
  expression of AQP1, regulated by LXR-β: significant increase
  expression of Srebf1, specifically regulated by LXR-α: no significant increase
[2]; liver sample, inferred from Srebf1 and AQP1 expression
  LXR-α / LXR-β selectivity inferred from marker expression: does not bind well to LXR-α and acts as an agonist by more specifically binding to LXR-β
[3]; Female, Group 2 (5.0 mg/kg oral once a day for 2 weeks)
  Total fat (%) in mouse liver, Average: 3.24%
[3]; Female, Group 2 (5.0 mg/kg oral once a day for 2 weeks), 5 mg/kg
  Total fat (%) in mouse liver, individual animal analyses: 2.96% and 3.08% and 2.80% and 2.72% and 3.45% and 3.57% and 3.03% and 3.10% and 4.42% and 3.82% and 2.85% and 3.09%
[3]; Female, Group 3 (20 mg/kg oral once a day for 2 weeks)
  Total fat (%) in mouse liver, Average: 3.56%
[3]; Female, Group 3 (20 mg/kg oral once a day for 2 weeks), 20 mg/kg
  Total fat (%) in mouse liver, individual animal analyses: 4.01% and 4.03% and 3.49% (2×) and 2.69% and 2.94% and 3.09% and 3.19% and 3.16% and 3.23% and 4.77% and 4.62%
[3]; Male, Group 2 (5.0 mg/kg oral once a day for 2 weeks)
  Total fat (%) in mouse liver, Average: 3.23%
[3]; Male, Group 2 (5.0 mg/kg oral once a day for 2 weeks), 5 mg/kg
  Total fat (%) in mouse liver, individual animal analyses: 3.39% and 3.25% and 3.48% and 3.47% and 2.83% and 2.72% and 2.86% and 3.78% and 3.19% and 3.17% and 3.18% and 3.43%
[3]; Male, Group 3 (20 mg/kg oral once a day for 2 weeks)
  Total fat (%) in mouse liver, Average: 3.27%
[3]; Male, Group 3 (20 mg/kg oral once a day for 2 weeks), 20 mg/kg
  Total fat (%) in mouse liver, individual animal analyses: 3.38% and 3.52% and 3.44% and 3.47% and 3.07% and 3.10% and 3.23% and 3.30% and 3.36% and 3.41% and 2.99% and 2.93%
[3]; dose of 5 mg/kg
  changes in total fat content of the liver: no significant changes
[3]; dose of 20 mg/kg
  changes in total fat content of the liver: no significant changes
[3]; oral, 5.0 and 20 mg/kg once a day for 2 weeks, male and female ICR mice
  signs of abnormal health: No signs of abnormal health
Rheumatoid arthritis
  macroscopic arthritic score (maximum score=16): lower
TNF-α
  TNF-α expression (ELISA): lower level
